Source: PubChem BioAssay (NCI)
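These data come from cells grown in 96-well plates and exposed to compound for 48 hours at five concentrations. Definition used: TGI = concentration required for complete inhibition of growth.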

Assays:
Assay in all cases: DTP human tumour cell line panel, 48 h
SNB-78 CNS = tested on: SNB-78 CNS
DLD-1 colon = tested on: DLD-1 colon
M19-MEL melanoma = tested on: M19-MEL melanoma
UO-31 renal = tested on: UO-31 renal
OVCAR-3 ovarian = tested on: OVCAR-3 ovarian
KM20L2 colon = tested on: KM20L2 colon
SF-268 CNS = tested on: SF-268 CNS
HL-60(TB) leukemia = tested on: HL-60(TB) leukemia
SF-539 CNS = tested on: SF-539 CNS
HOP-62 NSCLC = tested on: HOP-62 NSCLC
SR leukemia = tested on: SR leukemia
BT-549 breast = tested on: BT-549 breast

CCCCCOc1ccc(C=Nc2ccc(CCc3ccc(N=Cc4ccc(OCCCCC)cc4)cc3)cc2)cc1
TGI (SNB-78 CNS): > 100 µM
TGI (DLD-1 colon): > 100 µM
TGI (M19-MEL melanoma): > 100 µM
TGI (UO-31 renal): > 100 µM
TGI (OVCAR-3 ovarian): > 100 µM
TGI (KM20L2 colon): > 100 µM
TGI (SF-268 CNS): > 100 µM
TGI (HL-60(TB) leukemia): > 100 µM
TGI (SF-539 CNS): > 100 µM
TGI (HOP-62 NSCLC): > 100 µM

c1ccc(-c2csc3c4ccccc4c4ccccc4[n+]23)cc1
TGI (SNB-78 CNS): 11.1 µM
TGI (DLD-1 colon): 25.4 µM
TGI (M19-MEL melanoma): 4.22 µM
TGI (UO-31 renal): 31.8 µM
TGI (OVCAR-3 ovarian): 5.29 µM
TGI (KM20L2 colon): 20.6 µM
TGI (SF-268 CNS): 9.65 µM
TGI (HL-60(TB) leukemia): > 35 µM
TGI (SR leukemia): > 100 µM
TGI (SF-539 CNS): 14.8 µM
TGI (HOP-62 NSCLC): 20.7 µM

Cc1ccc(C)c(NC(=O)C(=O)C(C(=O)c2ccc3ccccc3c2)C2OC(=O)c3ccccc32)c1 (stereo unspecified)
TGI (SNB-78 CNS): > 100 µM
TGI (DLD-1 colon): 64.3 µM
TGI (M19-MEL melanoma): 30.5 µM
TGI (UO-31 renal): 31.6 µM
TGI (KM20L2 colon): 53.3 µM
TGI (SF-268 CNS): 23.2 µM
TGI (HL-60(TB) leukemia): 52 µM
TGI (SR leukemia): > 100 µM
TGI (SF-539 CNS): 17.4 µM
TGI (HOP-62 NSCLC): 62.1 µM

O=C(O)CN(CC(=O)O)C1CCCCC1N1CC(=O)OC(=O)C1 (stereo unspecified)
TGI (BT-549 breast): > 100 µM
TGI (UO-31 renal): > 100 µM
TGI (OVCAR-3 ovarian): > 100 µM
TGI (SF-268 CNS): > 100 µM
TGI (HL-60(TB) leukemia): > 100 µM
TGI (SR leukemia): > 100 µM
TGI (SF-539 CNS): > 100 µM
TGI (HOP-62 NSCLC): > 100 µM

CCN(CCCOc1ccccc1)CCN(CC)CCCOc1ccccc1
TGI (BT-549 breast): 29.1 µM
TGI (UO-31 renal): 22.3 µM
TGI (OVCAR-3 ovarian): 31.9 µM
TGI (SF-268 CNS): 28.4 µM
TGI (HL-60(TB) leukemia): 25.4 µM
TGI (SR leukemia): 26.6 µM
TGI (SF-539 CNS): 24.7 µM
TGI (HOP-62 NSCLC): 45.5 µM

C1=C(c2ccccc2)SC(N2CCCCC2)S1 (stereo unspecified)
TGI (SNB-78 CNS): > 100 µM
TGI (DLD-1 colon): > 100 µM
TGI (M19-MEL melanoma): > 100 µM
TGI (UO-31 renal): > 100 µM
TGI (OVCAR-3 ovarian): > 100 µM
TGI (KM20L2 colon): > 100 µM
TGI (SF-268 CNS): > 100 µM
TGI (HL-60(TB) leukemia): > 100 µM
TGI (SR leukemia): > 100 µM
TGI (SF-539 CNS): > 100 µM
TGI (HOP-62 NSCLC): > 100 µM

CCOC(=O)c1c(C)n(Cc2ccc(Cl)cc2Cl)c2c1cc(O)c1[nH]c3c(c12)CCCC3
TGI (BT-549 breast): 41.3 µM
TGI (UO-31 renal): 51.3 µM
TGI (OVCAR-3 ovarian): > 100 µM
TGI (SF-268 CNS): 56.4 µM
TGI (HL-60(TB) leukemia): 2.79 µM
TGI (SR leukemia): 0.379 µM
TGI (SF-539 CNS): 56.9 µM
TGI (HOP-62 NSCLC): 93.7 µM

OC1[C@@H]2[C@@H](O)CCCN2C[C@@H](O)[C@H]1O (stereo partly specified)
TGI (BT-549 breast): > 100 µM
TGI (UO-31 renal): > 100 µM
TGI (OVCAR-3 ovarian): > 100 µM
TGI (SF-268 CNS): > 100 µM
TGI (HL-60(TB) leukemia): > 100 µM
TGI (SR leukemia): > 100 µM
TGI (SF-539 CNS): > 100 µM
TGI (HOP-62 NSCLC): > 100 µM

C=CCOC(=O)N1c2ccc(O[Si](C)(C)C(C)(C)C)cc2[C@@]23O[C@@]24[C@@H]1C#C/C=C\C#C[C@]3(O)C(OC)(OC)C[C@@H]4C
TGI (BT-549 breast): > 100 µM
TGI (UO-31 renal): > 100 µM
TGI (OVCAR-3 ovarian): > 100 µM
TGI (SF-268 CNS): > 100 µM
TGI (HL-60(TB) leukemia): > 100 µM
TGI (SR leukemia): > 100 µM
TGI (SF-539 CNS): > 100 µM
TGI (HOP-62 NSCLC): > 100 µM

COc1cc2c(c(O)c1O)C(=O)C1CCC(=O)N1C2c1cccc2ccccc12 (stereo unspecified)
TGI (BT-549 breast): > 50 µM
TGI (UO-31 renal): > 50 µM
TGI (OVCAR-3 ovarian): > 50 µM
TGI (SF-268 CNS): > 50 µM
TGI (HL-60(TB) leukemia): > 50 µM
TGI (SR leukemia): > 50 µM
TGI (SF-539 CNS): > 50 µM
TGI (HOP-62 NSCLC): > 50 µM

O=C(O)CCc1nc2c(n1-c1ccccc1)C(=O)c1ccccc1C2=O
TGI (BT-549 breast): > 100 µM
TGI (UO-31 renal): > 100 µM
TGI (OVCAR-3 ovarian): > 100 µM
TGI (SF-268 CNS): > 100 µM
TGI (HL-60(TB) leukemia): > 100 µM
TGI (SR leukemia): > 100 µM
TGI (SF-539 CNS): > 100 µM
TGI (HOP-62 NSCLC): > 100 µM

Cc1ccc(Nc2nc3[nH]ccc3c(=O)[nH]2)cc1
TGI (BT-549 breast): > 100 µM
TGI (UO-31 renal): > 100 µM
TGI (OVCAR-3 ovarian): > 100 µM
TGI (SF-268 CNS): > 100 µM
TGI (HL-60(TB) leukemia): > 100 µM
TGI (SR leukemia): > 100 µM
TGI (SF-539 CNS): > 100 µM
TGI (HOP-62 NSCLC): > 100 µM
